Data taken from patent US5912266A, “Beta2 integrin cell adhesion molecule inhibitors” (American Home Products Corporation, priority 1997, dated 1999).
Values joined by “and” are separate entries in the source; they are usually repeats but may differ in a detail not shown here. Identical values can stand only once.

Molecular target: T1, E-selectin (Homo sapiens, UniProt P16581)
T1 construct: calcein-labelled HL60 cells adhere
T1 sequence (P16581 22-556 limits assumed): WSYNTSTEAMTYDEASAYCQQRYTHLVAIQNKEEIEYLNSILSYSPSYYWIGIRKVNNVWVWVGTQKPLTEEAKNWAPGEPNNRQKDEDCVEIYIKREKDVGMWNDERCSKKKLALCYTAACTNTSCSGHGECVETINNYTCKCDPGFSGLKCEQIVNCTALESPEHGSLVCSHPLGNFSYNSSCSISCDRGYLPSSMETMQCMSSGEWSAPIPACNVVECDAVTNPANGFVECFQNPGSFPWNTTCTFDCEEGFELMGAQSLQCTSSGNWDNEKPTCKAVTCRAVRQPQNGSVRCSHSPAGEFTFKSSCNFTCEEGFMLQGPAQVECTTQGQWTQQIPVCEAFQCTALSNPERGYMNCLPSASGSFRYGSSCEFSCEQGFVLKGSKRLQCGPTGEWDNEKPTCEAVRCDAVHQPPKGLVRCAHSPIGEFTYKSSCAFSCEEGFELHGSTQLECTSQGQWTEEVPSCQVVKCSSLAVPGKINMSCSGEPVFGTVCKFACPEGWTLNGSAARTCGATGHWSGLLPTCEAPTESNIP
Assay: Adhesion of HL60 cells to recombinant, soluble, human E-selectin
Assay type: cell-based
Conditions: for Percent Cells Bound: single well
Experimental: rsE-selectin was prepared and purified using standard molecular biology techniques. HL60 cells were obtained from American Type Culture Collection (ATCC) and maintained in culture media, as described in Example I, except that cells could be used in the assay at any passage number. Other materials required for the assay are as described in Examples I and II.
200 ng of purified, recombinant, soluble E-selectin contained in 100 μl of dPBS was added to wells of a flat bottom 96 well EIA/RIA plate. The control wells were filled with dPBS only and the assay plate was incubated at 4° C. for at least 18 hours to allow the rsE-selectin to bind to assay wells. The rsE-selectin solution was removed from the wells of the assay plate, washed, and blocked with 1% BSA, as described in Example II.
HL60 cells were harvested from culture, washed and labeled with calcein AM as outlined in Example I, except that the concentration of calcein used to label the HL-60 cells was 12.5 μM and cells were centrifuged at 1000 rpm for 5 minutes. After the final cell wash (see Example I), the cells were resuspended in ice-cold PMN buffer to 1.0×10^5 cells/40 μl and the cells were placed in the dark at room temperature until added to the assay plate.
The asperlin solutions were prepared as described in Example I. The dPBS remaining in the wells of the assay plate was removed by inverting the plate and tapping it on paper toweling and the assay was performed as described in Example II. 100 μl of PMN buffer was added to all wells of the assay plate and the fluorescence of the adherent HL-60 cells binding to rsE-selectin was measured using a fluorescent plate reader, described in Example I. The percentage of HL60 cells binding to E-selectin and the percentage of inhibition of HL60 cell adhesion to E-selectin in the presence of asperlin were also quantitated as described in Example II.

- Average Percent Bound (Asperlin 100 μg/ml): 62%
- Percent Cells Bound (Asperlin 100 μg/ml): 64% and 59%
- Average Percent Bound (Asperlin 200 μg/ml): 48%
- Percent Cells Bound (Asperlin 200 μg/ml): 52% and 44%
- inhibition at 100 µg/mL (HL-60, Asperlin 100 μg/ml): -19%
- inhibition at 200 µg/mL (HL-60, Asperlin 200 μg/ml): 8%
Structure (SMILES): CC(=O)OC1C=CC(=O)OC1C1OC1C [Asperlin, 6,7-Anhydro-2,3,8-trideoxy-D-galacto-oct-2-enoic acidδ-lactone 4-acetate]
- Bound Cell Fluorescence (Asperlin 100 μg/ml): 1412 fluorescence units/well and 1096 fluorescence units/well
- Bound Cell Fluorescence (Asperlin 200 μg/ml): 1124 fluorescence units/well and 887 fluorescence units/well
- Effect on E-selectin mediated HL60 cell binding (in words) (summary of Table III): does not inhibit E-selectin mediated HL60 cell binding
